Data: ChEMBL document CHEMBL3045598, “Utilization of nicotinonitrile-2-thiol in the synthesis of new thiepino[2,3-b]pyridine derivative as an in vitro novel antitumor potent” (Med Chem Res, 2013)
Activity calls are given as the source filed them. The rule behind the calls is not given here.

Test system: Ehrlich
Test: Cytotoxicity against Mus musculus (mouse) EAC cells assessed as decrease in cell viability at 50 ug/ml by trypan blue exclusion assay
Assay type: functional, cell-based

Cc1cc2n(c(=S)c1C#N)CCCC(=O)C2
Activity: Active

CCOC(=O)CCCSc1nc(C)cc(C)c1C#N
Activity: Active

CCOC(=O)C1CCSc2nc(C)cc(C)c2C1=O (stereo not drawn)
Activity: Active
